Measured values as given in patent US9302999B2, “Substituted triazoles as herbicides” (E. I. DU PONT DE NEMOURS AND COMPANY, priority 2012, dated 2016).

What was measured:
Assay type in all cases: in vivo
wild oat (Avena fatua) = assay: Test C pre-/postemergence: wild oat
How it was run: (§1)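 Preemergence on seeds in loam/sand, postemergence on 2–18 cm (1–4-leaf) plants in peat-based medium; compounds in non-phytotoxic solvent with surfactant. After 13–15 days in greenhouse, visual rating versus controls, 0 (no effect) to 100 (complete control).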

[1] = tested on: barnyardgrass (Echinochloa crus-galli); assay: Test A pre-/postemergence: barnyardgrass; details: for Barnyardgrass plant response rating: Postemergence; for Plant response rating, Barnyardgrass: Preemergence
How it was run: (§2)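 Injury was scored visually on a 0 (no effect) to 100 (complete control) scale versus untreated controls roughly ten days after treatment in the greenhouse. Compounds, formulated in surfactant-containing non-phytotoxic solvent, went on as soil-directed preemergence spray or postemergence to one- to two-leaf plants 2–10 cm tall.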

[2] = tested on: nutsedge, yellow (yellow nutsedge, Cyperus esculentus); assay: Test C pre-/postemergence: nutsedge, yellow
How it was run: as §1

[3] = tested on: large crabgrass (Digitaria sanguinalis); assay: Test C pre-/postemergence: large crabgrass
How it was run: as §1

[4] = tested on: morningglory (Ipomoea spp.); assay: Test A pre-/postemergence: morningglory; details: for Morningglory plant response rating: Postemergence; for Plant response rating, Morningglory: Preemergence
How it was run: as §2

[5] = tested on: crabgrass, large (large crabgrass, Digitaria sanguinalis); assay: Test A pre-/postemergence: crabgrass, large; details: for Crabgrass, Large plant response rating: Postemergence; for Plant response rating, Crabgrass, Large: Preemergence
How it was run: as §2

[6] = tested on: galium (catchweed bedstraw, Galium aparine); assay: Test C pre-/postemergence: galium
How it was run: as §1

[7] = tested on: ryegrass, Italian (Italian ryegrass, Lolium multiflorum); assay: Test C pre-/postemergence: ryegrass, Italian
How it was run: as §1

[8] = tested on: foxtail, giant (giant foxtail, Setaria faberii); assay: Test A pre-/postemergence: foxtail, giant; details: for Foxtail, Giant plant response rating: Postemergence; for Plant response rating, Foxtail, Giant: Preemergence
How it was run: as §2

[9] = tested on: velvetleaf (Abutilon theophrasti); assay: Test A pre-/postemergence: velvetleaf; details: for Velvetleaf plant response rating: Postemergence; for Plant response rating, Velvetleaf: Preemergence
How it was run: as §2

[10] = tested on: chickweed (common chickweed, Stellaria media); assay: Test C postemergence: chickweed
How it was run: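 Greenhouse pot test; foliar postemergence treatment at 1- to 4-leaf stage. Rated visually at 13 to 15 days on a 0–100 control scale relative to untreated plants.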

[11] = Postemergence, 31 g ai/ha, scale 0 to 100 (0 no effect, 100 complete control)
[12] = Postemergence, 62 g ai/ha, scale 0 to 100 (0 no effect, 100 complete control)
[13] = Postemergence, 125 g ai/ha, scale 0 to 100, 0 no effect, 100 complete control
[14] = Postemergence, 250 g ai/ha, scale 0 to 100
[15] = Preemergence, 31 g ai/ha, scale of 0 to 100, 0 is no effect, 100 is complete control
[16] = Preemergence, 62 g ai/ha, scale of 0 to 100, 0 is no effect, 100 is complete control
[17] = Preemergence, 125 g ai/ha, scale 0 to 100, 0 no effect, 100 complete control
[18] = Preemergence, 250 g ai/ha, scale 0 to 100, 0 no effect, 100 complete control
[19] = 125 g ai/ha, 0 to 100 scale, 0 is no effect, 100 is complete control
[20] = 500 g ai/ha, visual rating on 0 to 100 scale (0 no effect, 100 complete control), approximately ten days
[21] = 125 g ai/ha, 0 to 100 scale (0 no effect, 100 complete control)
[22] = 500 g ai/ha, 0 to 100 scale, 0 is no effect, 100 is complete control
[23] = 31 g ai/ha, scale 0 to 100 (0 no effect, 100 complete control)
[24] = 62 g ai/ha, scale 0 to 100 (0 no effect, 100 complete control)
[25] = 125 g ai/ha, scale 0 to 100, 0 no effect, 100 complete control

Cc1nn(-c2ccc(C(F)(F)F)cn2)nc1Oc1ccnc(C(F)(F)F)c1 [Compound 23]
90: Barnyardgrass plant response rating [1, 20] | Morningglory plant response rating [4, 19] | Crabgrass, Large plant response rating [5, 19] | Crabgrass, Large plant response rating [5, 20] | Plant response rating, Galium [6, 13] | Plant response rating, Galium [6, 14] | Foxtail, Giant plant response rating [8, 19] | Foxtail, Giant plant response rating [8, 20] | Velvetleaf plant response rating [9, 19]
80: Plant response rating, Oat, Wild (wild oat (Avena fatua); [16]) | Plant response rating, Oat, Wild (wild oat (Avena fatua); [17]) | Plant response rating, Morningglory [4, 21] | Plant response rating, Morningglory [4, 22] | Plant response rating, Galium [6, 15]
55: Plant response rating, Nutsedge, Yellow [2, 18] | Plant response rating, Chickweed [10, 24]
10: Plant response rating, Oat, Wild (wild oat (Avena fatua); [12]) | Plant response rating, Nutsedge, Yellow [2, 11] | Plant response rating, Nutsedge, Yellow [2, 12] | Plant response rating, Nutsedge, Yellow [2, 13] | Plant response rating, Nutsedge, Yellow [2, 14] | Plant response rating, Nutsedge, Yellow [2, 16] | Plant response rating, Crabgrass, Large [3, 11] | Plant response rating, Ryegrass, Italian [7, 12] | Plant response rating, Ryegrass, Italian [7, 13]
50: Plant response rating, Velvetleaf [9, 21]
85: Plant response rating, Galium [6, 11] | Plant response rating, Galium [6, 12]
95: Plant response rating, Galium [6, 16]
60: Plant response rating, Chickweed [10, 25]
100: Plant response rating, Oat, Wild (wild oat (Avena fatua); [18]) | Plant response rating, Barnyardgrass [1, 22] | Plant response rating, Crabgrass, Large [3, 15] | Plant response rating, Crabgrass, Large [3, 16] | Plant response rating, Crabgrass, Large [3, 17] | Plant response rating, Crabgrass, Large [3, 18] | Morningglory plant response rating [4, 20] | Plant response rating, Crabgrass, Large [5, 21] | Plant response rating, Crabgrass, Large [5, 22] | Plant response rating, Galium [6, 17] | Plant response rating, Galium [6, 18] | Plant response rating, Foxtail, Giant [8, 21] | Plant response rating, Foxtail, Giant [8, 22] | Velvetleaf plant response rating [9, 20] | Plant response rating, Velvetleaf [9, 22]
70: Barnyardgrass plant response rating [1, 19] | Plant response rating, Barnyardgrass [1, 21] | Plant response rating, Ryegrass, Italian [7, 18] | Plant response rating, Chickweed ([10]; 250 g ai/ha, scale 0 to 100)
25: Plant response rating, Crabgrass, Large [3, 13] | Plant response rating, Ryegrass, Italian [7, 17]
45: Plant response rating, Oat, Wild (wild oat (Avena fatua); [15])
30: Plant response rating, Chickweed [10, 23]
0: Plant response rating, Ryegrass, Italian [7, 15]
5: Plant response rating, Oat, Wild (wild oat (Avena fatua); [11]) | Plant response rating, Nutsedge, Yellow [2, 15] | Plant response rating, Ryegrass, Italian [7, 11] | Plant response rating, Ryegrass, Italian [7, 16]
15: Plant response rating, Crabgrass, Large [3, 12] | Plant response rating, Ryegrass, Italian [7, 14]
35: Plant response rating, Oat, Wild (wild oat (Avena fatua); [13]) | Plant response rating, Oat, Wild (wild oat (Avena fatua); [14]) | Plant response rating, Nutsedge, Yellow [2, 17] | Plant response rating, Crabgrass, Large [3, 14]

Fc1ccc(-n2nc(Cc3ccnc(C(F)(F)F)c3)c(OC(F)F)n2)cc1 [Compound 25]
45: Plant response rating, Ryegrass, Italian [7, 17]
15: Plant response rating, Crabgrass, Large [3, 11] | Plant response rating, Galium [6, 16]
80: Plant response rating, Oat, Wild (wild oat (Avena fatua); [17]) | Plant response rating, Barnyardgrass [1, 21] | Plant response rating, Morningglory [4, 22] | Plant response rating, Galium [6, 17] | Velvetleaf plant response rating [9, 19] | Plant response rating, Velvetleaf [9, 22]
98: Plant response rating, Crabgrass, Large [3, 15] | Plant response rating, Galium [6, 18] | Plant response rating, Chickweed [10, 25] | Plant response rating, Chickweed ([10]; 250 g ai/ha, scale 0 to 100)
20: Plant response rating, Oat, Wild (wild oat (Avena fatua); [15]) | Plant response rating, Crabgrass, Large [3, 12] | Plant response rating, Velvetleaf [9, 21]
60: Plant response rating, Chickweed [10, 24]
10: Plant response rating, Nutsedge, Yellow [2, 13] | Plant response rating, Nutsedge, Yellow [2, 14]
65: Plant response rating, Crabgrass, Large [3, 14]
5: Plant response rating, Oat, Wild (wild oat (Avena fatua); [11]) | Plant response rating, Oat, Wild (wild oat (Avena fatua); [12]) | Plant response rating, Nutsedge, Yellow [2, 11] | Plant response rating, Nutsedge, Yellow [2, 12] | Plant response rating, Ryegrass, Italian [7, 11] | Plant response rating, Ryegrass, Italian [7, 12] | Plant response rating, Ryegrass, Italian [7, 13] | Plant response rating, Ryegrass, Italian [7, 14] | Plant response rating, Ryegrass, Italian [7, 15]
55: Plant response rating, Galium [6, 13] | Plant response rating, Galium [6, 14]
90: Plant response rating, Oat, Wild (wild oat (Avena fatua); [18]) | Barnyardgrass plant response rating [1, 20] | Plant response rating, Barnyardgrass [1, 22] | Crabgrass, Large plant response rating [5, 19] | Crabgrass, Large plant response rating [5, 20] | Plant response rating, Crabgrass, Large [5, 21] | Plant response rating, Ryegrass, Italian [7, 18] | Foxtail, Giant plant response rating [8, 19] | Foxtail, Giant plant response rating [8, 20]
35: Plant response rating, Ryegrass, Italian [7, 16]
40: Plant response rating, Crabgrass, Large [3, 13]
0: Plant response rating, Nutsedge, Yellow [2, 15] | Plant response rating, Nutsedge, Yellow [2, 16] | Plant response rating, Nutsedge, Yellow [2, 17] | Plant response rating, Nutsedge, Yellow [2, 18] | Plant response rating, Galium [6, 15]
100: Plant response rating, Crabgrass, Large [3, 16] | Plant response rating, Crabgrass, Large [3, 17] | Plant response rating, Crabgrass, Large [3, 18] | Morningglory plant response rating [4, 19] | Morningglory plant response rating [4, 20] | Plant response rating, Crabgrass, Large [5, 22] | Plant response rating, Foxtail, Giant [8, 21] | Plant response rating, Foxtail, Giant [8, 22] | Velvetleaf plant response rating [9, 20]
30: Plant response rating, Oat, Wild (wild oat (Avena fatua); [13]) | Plant response rating, Oat, Wild (wild oat (Avena fatua); [14]) | Plant response rating, Oat, Wild (wild oat (Avena fatua); [16]) | Plant response rating, Morningglory [4, 21] | Plant response rating, Chickweed [10, 23]
50: Barnyardgrass plant response rating [1, 19] | Plant response rating, Galium [6, 11] | Plant response rating, Galium [6, 12]

FC(F)Oc1nn(-c2ccc(C(F)(F)F)cc2)nc1Cc1ccnc(C(F)(F)F)c1 [Compound 26]
35: Plant response rating, Ryegrass, Italian [7, 14]
55: Plant response rating, Galium [6, 12]
30: Plant response rating, Oat, Wild (wild oat (Avena fatua); [12]) | Plant response rating, Crabgrass, Large [3, 12] | Plant response rating, Ryegrass, Italian [7, 13]
70: Plant response rating, Oat, Wild (wild oat (Avena fatua); [16]) | Plant response rating, Oat, Wild (wild oat (Avena fatua); [17])
50: Plant response rating, Galium [6, 11] | Plant response rating, Galium [6, 15]
15: Plant response rating, Nutsedge, Yellow [2, 13] | Plant response rating, Nutsedge, Yellow [2, 14]
98: Plant response rating, Crabgrass, Large [3, 15] | Plant response rating, Crabgrass, Large [3, 16] | Plant response rating, Chickweed [10, 24]
75: Plant response rating, Galium [6, 13] | Plant response rating, Galium [6, 14] | Plant response rating, Galium [6, 16]
10: Plant response rating, Oat, Wild (wild oat (Avena fatua); [11]) | Plant response rating, Nutsedge, Yellow [2, 11] | Plant response rating, Nutsedge, Yellow [2, 12] | Plant response rating, Ryegrass, Italian [7, 11] | Plant response rating, Ryegrass, Italian [7, 15]
100: Plant response rating, Crabgrass, Large [3, 17] | Plant response rating, Crabgrass, Large [3, 18] | Morningglory plant response rating [4, 19] | Morningglory plant response rating [4, 20] | Plant response rating, Crabgrass, Large [5, 21] | Plant response rating, Crabgrass, Large [5, 22] | Plant response rating, Galium [6, 17] | Plant response rating, Galium [6, 18] | Plant response rating, Foxtail, Giant [8, 21] | Plant response rating, Foxtail, Giant [8, 22] | Velvetleaf plant response rating [9, 19] | Velvetleaf plant response rating [9, 20] | Plant response rating, Chickweed [10, 25] | Plant response rating, Chickweed ([10]; 250 g ai/ha, scale 0 to 100)
40: Plant response rating, Oat, Wild (wild oat (Avena fatua); [13]) | Plant response rating, Crabgrass, Large [3, 13] | Plant response rating, Crabgrass, Large [3, 14] | Plant response rating, Chickweed [10, 23]
80: Barnyardgrass plant response rating [1, 19] | Plant response rating, Morningglory [4, 21] | Plant response rating, Morningglory [4, 22] | Plant response rating, Ryegrass, Italian [7, 18] | Plant response rating, Velvetleaf [9, 21]
20: Plant response rating, Crabgrass, Large [3, 11] | Plant response rating, Ryegrass, Italian [7, 12]
90: Barnyardgrass plant response rating [1, 20] | Plant response rating, Barnyardgrass [1, 21] | Plant response rating, Barnyardgrass [1, 22] | Crabgrass, Large plant response rating [5, 19] | Crabgrass, Large plant response rating [5, 20] | Foxtail, Giant plant response rating [8, 19] | Foxtail, Giant plant response rating [8, 20] | Plant response rating, Velvetleaf [9, 22]
0: Plant response rating, Nutsedge, Yellow [2, 15] | Plant response rating, Nutsedge, Yellow [2, 16] | Plant response rating, Nutsedge, Yellow [2, 17] | Plant response rating, Nutsedge, Yellow [2, 18]
85: Plant response rating, Oat, Wild (wild oat (Avena fatua); [14])
60: Plant response rating, Ryegrass, Italian [7, 16] | Plant response rating, Ryegrass, Italian [7, 17]
45: Plant response rating, Oat, Wild (wild oat (Avena fatua); [15])
95: Plant response rating, Oat, Wild (wild oat (Avena fatua); [18])
